Test results from patent US20070041915A1, “Use of a biguanide derivative for protecting skin against uvb radiation” (PHARMAMENS, priority 2003, published 2007).

Legend:
[1] = cited from earlier work
Langerhans cells = test: Protective activity against UVB-induced immunosuppressive photo effect (depletion of Langerhans cells) on survival-maintained human skin explants, anti-CD1a labelling; format: cell-based; details: histology and immunolabelling of Langerhans cells 24 hours after irradiation; preventive application
Experimental: The purpose of this study is to evidence the protective activity of metformin against an immunosuppressive photo effect (depletion of Langerhans cells) induced by UVB radiation on a survival-maintained human skin model.
The immunosuppressive photo activity induced by UVB is, assessed by counting the number of Langerhans cells in a separated epidermis and in tissue sections after anti-CDla labelling.
27 skin explants were prepared and maintained in-survival in a culture medium. They were divided among 9 batches of three explants: three reference batches, three excipient batches and three ointment batches containing 1% metformin (formulation example 3).
3 batches (reference, excipient and ointment) were exposed to UVB radiation of 4 J/cm^2, three batches (reference, excipient and ointment) to UVB radiation of 6 J/cm^2 and the three last batches were placed in darkness during the time of irradiation.
Daily application of the ointment was 4 mg per explant for 3 days before irradiation.
Analysis of the reference and treated explants was performed 24 h after irradiation.
Anti-CDla immunolabelling of Langerhans cells was made in the separated epidermis and in tissue sections.

Structure (SMILES): CN(C)C(=N)N=C(N)N [metformin]
- toxicity ([1]; at hypoglycaemic doses): absence of toxicity
- chronic toxicity ([1]; in vivo): practically zero
- tolerance ([1]; in vivo): good
- protective activity against UVB (Langerhans cells): protective action
